Source: patent US20070077268A1, “Hydrophobic carrier modified implants for beneficial agent delivery” (DePuy Products, Inc., priority 2005, published 2007)

Assay: Cyclic loading test of UHMWPE pins, release of beta-carotene
Format: physicochemical
Conditions: pins soaked in 1.0 wt. % beta-carotene in squalane at 90° C. for 24 hours; peak load about 330 Newtons, 1.66 Hz, bovine calf serum, 37° C.
Method: UHMWPE (GUR 1050) is irradiated with gamma radiation (50 KGy or 5 Mrad) and melt annealed to quench free radicals. An AMTI Ortho-POD Wear Test Machine is used for the testing the UHMWPE cylindrical pin samples. The samples are ⅜ inch in diameter and 0.7 inch long, and are soaked in a 1.0 wt. % solution of beta-carotene in squalane at 90° C. for 24 hours. The samples are bright orange red in color, indicating the presence of beta-carotene.
A Paul loading curve with a peak load of about 330 Newtons is applied to the pins. The cycling frequency is 1.66 Hz. A 90% bovine calf serum, diluted with EDTA and sodium azide dissolved in reverse osmosis water, is used as lubricant. The temperature of the lubricant is 37° C.

release of beneficial agent from UHMWPE pins (colour change bright orange red to light orange): released, activated by the load
Structure (SMILES): CC1=C(/C=C/C(C)=C/C=C/C(C)=C/C=C/C=C(C)/C=C/C=C(C)/C=C/C2=C(C)CCCC2(C)C)C(C)(C)CCC1 [beta-carotene]
